In the case of `COCCNC(=O)c1cccc(-c2cccc3c(C)c(Cc4cccc(C(F)(F)F)c4)sc23)c1`, the melting point is 135 to 136 °C.
`C=CCn1cc(Cl)cnc1=O` registered a melting point of 130 to 131 °C.
Under `Clc1nccnc1NCCOc1ccccc1` stands 51 to 53 °C; under `C=C(C)Sc1oc2cc(OC)ccc2c(=O)c1-c1ccccc1`, 117 to 118 °C; under `CC1=C(C2OC(=O)NC2=O)CCCC1` (configuration not stated), 104 to 106 °C.
Under `COCCOCn1c2ccccc2c2c(C)c(C(=O)OC)sc21` stands 85.4 to 86 °C.
With `O=C(O)c1ccc2c(c1)Sc1ccccc1S2`, the melting point came to 220 °C.
Under `O=C1c2ccc([N+](=O)[O-])cc2C(=O)N1C1CCN(CCc2ccccc2)CC1` stands 240 to 242 °C.
Under `CC(C)C1NS(=O)(=O)N(CCl)C1=O` (configuration not stated) stands 71 to 72 °C.
Under `CCC(Oc1ccc2nc(NC(=O)NCCN3CCOCC3)sc2c1)c1c(Cl)cccc1Cl` (configuration not stated) stands 200 °C; under `COc1ccc2c(c1)C(=O)C(Cc1ccccc1)CS2` (configuration not stated), 66 to 68 °C; under `CSc1nc(-c2cc(C(=O)N(C)C)ccc2C)c2c(n1)N(c1c(F)cccc1F)C(=O)NC2`, 144 to 147 °C.
`CC(=O)N(C)S(=O)(=O)c1cc(-n2c(=O)cc(C(F)(F)F)n(C)c2=O)ccc1Cl`: the melting point is 193 to 195 °C.
Under `Oc1ccc(C2CC(c3ccc(O)cc3)C2)cc1` (configuration not stated) stands 148 to 164 °C.
Under `CCCCC(Oc1c(Br)cc(-c2ccc(-c3c(Cc4ccccc4)oc4ccccc34)cc2)cc1Br)C(=O)O` (configuration not stated) stands 75 to 76 °C; under `O=C(O)c1c(Cc2cc3c(cc2Cl)OCO3)c(-c2ccccc2)nn1CC1CCCC(C(=O)O)C1` (configuration not stated), 130 °C; under `COC(=O)C(O)=CC(=O)c1cn(Cc2ccccc2)c(=O)n(Cc2ccccc2)c1=O`, 158 to 159 °C.
Under `CCc1onc(-c2ccc(Cl)cc2)c1CCC(=O)O` stands 164 to 165 °C.
In turn, `Cc1nc2ccc(NC(=O)COCc3ccccc3)cc2c(=O)n1C1CCC(=O)NC1=O` (configuration not stated) yielded a melting point of 248 to 250 °C.
Turning to `COc1ccc2c(c1OC)CCC1C(=O)NC(=O)C21` (configuration not stated), the melting point was 217 to 219 °C.
`Nc1ncnc2c1ncn2OCCCCP(=O)(O)O`: the melting point lay in the range of 265 to 268 °C.
Under `COc1ccc(Cl)c(Oc2c(CO)nc(N3CCOCC3)nc2NS(=O)(=O)c2ccc(C(C)(C)C)cc2)c1` stands 103 °C.
Under `CCOc1ccc(C(=O)O)c(Cl)n1` stands 185 to 188 °C; under `COc1ccccc1N1CCN(CCCNC(=O)c2cccc3c(=O)c(C)c(C4(C)CCCCC4)oc23)CC1`, 120 to 124 °C; under `CCOC(=O)Cc1c(C(C)C(=O)O)c2cc(OC)ccc2n1Cc1ccc(Cl)cc1` (configuration not stated), 163 to 165 °C.
Under `COC(=O)c1ccc(OC)c([N+](=O)[O-])c1O` stands 185 to 187 °C.
In turn, `Cn1c(C(F)(F)F)cc(=O)n(-c2ccc(Cl)c(CO)c2)c1=O` gave a melting point of 192 to 194 °C.
Consider `O=C(O)c1ccccc1-c1nc2cc(-c3ccccc3)ccc2s1`, for which the melting point lay within 177 to 178 °C.
Under `COc1cccc(Sc2c3c(=O)n(C)c(=O)n(CC(C)C)c3cn2Cc2cccc3ccccc23)c1` stands 130 to 133 °C.
Under `CCc1c2c(nc3cc(F)c(F)cc13)-c1cc3c(c(=O)n1C2)COC(=O)CC3(O)CC` (configuration not stated) stands over 275 °C; under `COc1c(C)c(C)c(OC)c(Cc2ccccc2)c1C`, 53 to 54 °C.
With `N#Cc1cc(I)ccc1N`, the melting point lay in the range of 85 to 86 °C.
Under `O=C(O)CCc1oc(N2CCOCC2)nc1-c1ccc(Cl)cc1` stands 180 to 181 °C.
`CC(C)OC(=O)C=Cc1cc(-n2c(=O)cc(C(F)(F)F)n(C)c2=O)c(F)cc1Cl` returned a melting point of 137 to 139 °C.
In turn, `CCOc1ccc(N)cc1OC` had a melting point of 54 to 56 °C.
Under `FC(F)(F)c1ccc(Oc2ccc3c(c2)OCC(c2ccccc2)O3)nc1` (configuration not stated) stands 104 to 110 °C; under `COc1cccc(NC(=O)N2CCc3cc(S(=O)(=O)N4CCN(c5cccc(Cl)c5)CC4)ccc32)c1`, 199 to 200 °C.
With `CCCCc1nc2cccc(CO)c2n1Cc1ccc(-c2ccccc2C#N)cc1`, the melting point was in the range of 203 to 204 °C.
Under `CC(=O)OC1CSC(Oc2ccc(-c3c(C)n[nH]c3C)nc2)C(OC(C)=O)C1OC(C)=O` (configuration not stated) stands 154 °C; under `CC(C)(O)[C@H](N)c1ccccc1`, 49 °C; under `COc1ccc(C2CCN(C(=O)N3CCC(Nc4ccc(CCNC[C@H](O)COc5ccc(O)cc5)cc4)CC3)CC2)cc1OC1CCCC1`, 92 to 95 °C.
Under `O=C1CNC(=S)N1c1ccc2nc(S)sc2c1` stands over 266 °C.
Under `COC(=O)[C@@H]1C[C@H](OC(=O)c2cc3ccccc3o2)C(=O)[C@H]2[C@@]1(C)CC[C@H]1C(=O)O[C@H](c3ccoc3)C[C@]21C` stands 226 to 227 °C.
Molecule `CN(C)C=CC(=O)c1cc(Cl)ccc1Cl` came in with a melting point of 83 to 85 °C.
`COCc1cc(OC)c(-c2ccc(C[C@H](NC(=O)c3c(F)cccc3Cl)C(=O)O)cc2)c(OC)c1` registered a melting point of 170 to 175 °C.
Under `C=Cc1cnc(C)c(OC(=O)OCC)c1CSC(=O)OCC` stands 142 to 145 °C; under `Oc1ccc(-c2c3ccccc3c(Cl)c3sc4ccccc4c23)cc1`, 193 to 195 °C.
Under `COc1cc(Cl)cc(C)c1Nc1nc2c(Cl)ccc(C(=O)C(C)(C)C)c2n1C` stands 249 to 250 °C; under `CC(C)(SCc1ccccc1)[C@@H]1C[C@H](CSCc2ccccc2)C(=O)N1CC(=O)O` (relative stereo), 117 to 118 °C.
Under `ON=Cc1c(-c2ccccc2Br)ccc2c1OCO2` stands 168 to 169 °C; under `CCCCCCCNc1cccc2c1CN(c1cc(C)cc(C)c1)C2=O`, 68 to 69 °C.
With `CCC1NC(c2cc(Cl)nc(Cl)c2)=NC(=O)C1(CC)C(=O)OC` (configuration not stated), the melting point was 202 to 203 °C.
On to `COC(=N)N1CCC(c2nn(-c3ccc(C(F)(F)F)cc3)c3ccccc23)CC1`, for which the melting point was 113 to 115 °C.
Under `OC1CCCc2sccc21` (configuration not stated) stands 58 to 60 °C; under `COc1cc2ncnc(NC3=CC(=O)C(Nc4ccccc4)=CC3=O)c2cc1OC`, 258 to 261 °C; under `CCOC(=O)c1cnc(Nc2ccc(OCC)cc2)[nH]c1=O`, 263 to 265 °C.
Take `Cc1ccc(C(O)CN(C)Cc2cc3c(=O)c(C(=O)NCc4ccc(Cl)cc4)cn(C)c3o2)o1` (configuration not stated): the melting point fell in the range of 130 to 132 °C.
Under `CCOC(=O)CNC(=O)C1(CC)CCCCCCC1` stands 65 to 67 °C; under `O=C1NCCN1c1ccc(S(=O)(=O)Nc2cccc(Br)c2)cc1`, 184 to 185 °C.
Under `COC(=O)c1cn(-c2ncnc3c2ccn3C)c2ncccc12` stands 207 °C.
Under `COc1c(OCCCC(=O)O)ccc2c1N=C(C=C(O)c1cccnc1)N1CCN=C21` stands 257 to 258 °C.
In turn, `O=S1(=O)c2cccc3cccc(c23)N1CCCN1CCC(n2c(O)nc3ccccc32)CC1` showed a melting point of 253 °C.
In the case of `CC1=C(CN(C)C(=O)N2CCN(C(N)=O)CC2)C(C)(C)CCC1`, the melting point was found to be 140 °C.
Under `COc1cc(C(C)O)c(O)cc1OCCCN1CCC(c2noc3cc(F)ccc23)CC1` (configuration not stated) stands 156 to 158 °C.
Under `Cc1ccc(-c2ccc3c(c2)C=C(C(=O)Nc2ccc(Cc4ncccc4O)cc2)CCO3)cc1` stands 285 to 288 °C; under `CCCCC(C)n1ncc(-c2ccc(S(C)(=O)=O)cc2)c(-c2ccc(F)cc2)c1=O` (configuration not stated), 79 to 80 °C; under `COC(=O)c1nc(C)n2c1C(C)N=C(c1ccccc1)c1cc(Cl)ccc1-2` (configuration not stated), 217 to 221 °C.
Under `Cn1cnnc1S(=O)CC(=O)C12CC3CC(CC(C3)C1)C2` (configuration not stated) stands 124 to 127 °C; under `OCCCC1(c2ccccc2)OCCO1`, 39 to 42 °C.
In turn, `C=C(C)CCOc1ccc([N+](=O)[O-])cc1Cl` returned a melting point of 38 to 39 °C.
Under `CCOC(=O)C1=Cc2cc(Cl)c(Oc3ccc(CC)cc3)cc2OC1C(F)(F)F` (configuration not stated) stands 109 to 110 °C; under `CCC(CC)n1c(=O)ccc2cnc(Nc3ccccc3)nc21`, 116 to 118 °C; under `CCn1c(=O)c2c(nc(/C=C/c3cccc(OC)c3OC(C)=O)n2C)n(CC)c1=O`, 202 to 203 °C.
`CC/C(=C(\c1ccc(/C=C/C(=O)O)cc1)c1ccc(OC(=O)c2ccco2)cc1)c1ccccc1` had a melting point of 170 to 172 °C.
Under `O=C(O)CN1C(=O)[C@@H](N[C@@H](CCc2ccccc2)C(=O)O)COc2ccccc21` stands 127 to 130 °C.
`CCCCCCN(CCCCCC)C(Nc1ccc(OC)cc1OC)=C1C(=O)COC1=O` had a melting point of 96 to 98 °C.
Under `Cn1c(=O)oc2cc3c(cc21)OCC31C(=O)N(C(c2ccccc2)c2ccccc2)c2ccccc21` (configuration not stated) stands 228 to 229 °C; under `Cc1cc(C)c2oc(S)nc2c1C`, 146 to 147 °C.
Under `O=C(O)CCCOc1ccccc1OCCC(c1ccccc1)(c1ccccc1)c1ccccc1` stands 107 to 108 °C; under `O=C1N=CC(OCC2CC2)(C(F)(F)F)c2cc(Cl)ccc2N1` (configuration not stated), 185 to 186 °C.
Under `Fc1ccc2[nH]c3c(c2c1)CN(CCc1ccncc1)CC3` stands 233 to 235 °C.
`c1ccc(CN2CCC3(CC2)Oc2ccccc2Cn2cccc23)cc1` displayed a melting point of 109 to 111 °C.
Consider `O=C(ON1C(=O)CCC1=O)c1ccc(-c2ccc(S(=O)(=O)NCCO)cc2)[nH]c1=O`, for which the melting point fell in the range of 204 to 205 °C.
Under `COc1ccc(/C=C/S(=O)(=O)CS(=O)(=O)/C=C/c2ccc(OC)c(O)c2)cc1N` stands 148 to 150 °C; under `Cc1ccc([N+](=O)[O-])c(C#N)c1C`, 107 to 108 °C.
Under `CC(=Cc1ccc2ccc3cccc4ccc1c2c34)c1ccc(Cl)cc1` stands 162 to 164 °C; under `CN(C)C(=NS(=O)(=O)c1ccc(Cl)cc1)N1CC(c2ccccc2)C(c2ccc(Cl)cc2)=N1` (configuration not stated), 182 °C.
